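Where inhibition never reached the appropriate level, the endpoint shown equals the highest concentration tested. Otherwise, values were interpolated linearly from a five-concentration, 48-hour dose response in 96-well plates. GI50 is the concentration that inhibits growth by half.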 Activity calls are given as the source filed them. No stated cut-off is given here; in the data, active = GI50 up to about 1.1 µM and inactive = higher.
How the values were obtained:
Assay in all cases: growth of human tumour cells (NCI), 48 h
OVCAR-3 = test system: OVCAR-3
SNB-19 = test system: SNB-19
IGROV-1 = test system: IGROV-1
RPMI-8226 = test system: RPMI-8226
SR = test system: SR
HCT-15 = test system: HCT-15
MDA-N = test system: MDA-N
UACC-62 = test system: UACC-62
SF-295 = test system: SF-295
SW-620 = test system: SW-620
CAKI-1 = test system: CAKI-1
MDA-MB-435 = test system: MDA-MB-435
SN12C = test system: SN12C
DU-145 = test system: DU-145
HOP-92 = test system: HOP-92
ACHN = test system: ACHN
PC-3 = test system: PC-3
TK-10 = test system: TK-10
NCI-H522 = test system: NCI-H522
SNB-75 = test system: SNB-75

Compound	GI50 (OVCAR-3)	GI50 (SNB-19)	GI50 (IGROV-1)	GI50 (RPMI-8226)	GI50 (SR)	GI50 (HCT-15) [µM]	GI50 (MDA-N)	GI50 (UACC-62)	GI50 (SF-295)	GI50 (SW-620)	GI50 (CAKI-1)	GI50 (MDA-MB-435)	GI50 (SN12C)	GI50 (DU-145)	GI50 (HOP-92)	GI50 (ACHN)	GI50 (PC-3)	GI50 (TK-10)	GI50 (NCI-H522)	GI50 (SNB-75)
C[C@H](C(O)CC(=O)C(C)(C)O)[C@H]1CC[C@@]2(C)[C@@H]3CC[C@H]4C(C)(C)[C@@H](OC5OC(COC6OC(CO)C(O)C(O)C6O)C(O)C(O)C5O)CC[C@]4(C)C3=CC[C@]12C (some centres undefined)	> 100 µM (inactive)	> 100 µM (inactive)	> 100 µM (inactive)	> 100 µM (inactive)	> 100 µM (inactive)	> 100	> 100 µM (inactive)	> 100 µM (inactive)	> 100 µM (inactive)	> 100 µM (inactive)	> 100 µM (inactive)	> 100 µM (inactive)	> 100 µM (inactive)	> 100 µM (inactive)	> 100 µM (inactive)	> 100 µM (inactive)	> 100 µM (inactive)	> 100 µM (inactive)	> 100 µM (inactive)	> 100 µM (inactive)
OB(O)c1ccccc1C#Cc1ccccc1B(O)O	17.1 µM (inactive)	21.8 µM (inactive)	3.14 µM (inactive)	20.6 µM (inactive)	19.5 µM (inactive)	20.9	21.2 µM (inactive)	14.5 µM (inactive)	22.9 µM (inactive)	20.1 µM (inactive)	3.09 µM (inactive)	19.7 µM (inactive)	23.6 µM (inactive)	15.9 µM (inactive)	23.3 µM (inactive)	20.7 µM (inactive)	22.1 µM (inactive)	17.1 µM (inactive)	14.6 µM (inactive)	19 µM (inactive)
COC(=O)C1=CC2CCCC1(O)C(C(C)=O)C2 (centres undefined)	> 100 µM (inactive)	> 100 µM (inactive)	15.4 µM (inactive)	25.1 µM (inactive)	31.3 µM (inactive)	> 66.5	97.9 µM (inactive)	> 94.4 µM (inactive)	> 67.5 µM (inactive)	> 61.8 µM (inactive)	> 100 µM (inactive)	> 100 µM (inactive)	> 100 µM (inactive)	> 69.7 µM (inactive)	41.4 µM (inactive)	> 100 µM (inactive)	61.2 µM (inactive)	> 100 µM (inactive)	15.5 µM (inactive)	24.4 µM (inactive)
CCCCCC(=O)NC(=S)Nc1nnn[nH]1	> 100 µM (inactive)	> 100 µM (inactive)	> 100 µM (inactive)	> 100 µM (inactive)	> 100 µM (inactive)	> 100	> 100 µM (inactive)	> 100 µM (inactive)	> 100 µM (inactive)	> 100 µM (inactive)	> 100 µM (inactive)	> 100 µM (inactive)	> 100 µM (inactive)	> 100 µM (inactive)	> 100 µM (inactive)	> 10 µM (inactive)	> 100 µM (inactive)	> 100 µM (inactive)	> 100 µM (inactive)	> 100 µM (inactive)
COc1ccc(Nc2ccc3ccccc3c2-c2c(O)ccc3ccccc23)cc1	14.6 µM (inactive)	17.3 µM (inactive)	11 µM (inactive)	9.68 µM (inactive)	4.93 µM (inactive)	17.6	12.6 µM (inactive)	29.9 µM (inactive)	18.4 µM (inactive)	13.9 µM (inactive)	16.1 µM (inactive)	3.99 µM (inactive)	15.5 µM (inactive)	17.5 µM (inactive)	4.16 µM (inactive)	16.2 µM (inactive)	15.8 µM (inactive)	27.7 µM (inactive)	18.2 µM (inactive)	19.9 µM (inactive)
COc1cc(C)cc2c(-c3c(O)cc(O)c4c3C[C@H](C)N[C@H]4C)cc(-c3cc(-c4c(O)cc(O)c5c4C[C@H](C)N[C@H]5C)c4cc(C)cc(OC)c4c3O)c(O)c12	> 100 µM (inactive)	> 100 µM (inactive)	> 100 µM (inactive)	83.4 µM (inactive)	> 100 µM (inactive)	> 100	52 µM (inactive)	> 100 µM (inactive)	66.4 µM (inactive)	> 100 µM (inactive)	> 100 µM (inactive)	54.3 µM (inactive)	> 100 µM (inactive)	> 100 µM (inactive)	> 100 µM (inactive)	> 100 µM (inactive)	> 100 µM (inactive)	> 100 µM (inactive)	> 100 µM (inactive)	> 100 µM (inactive)
C/C=C1\CN2CCC34c5ccccc5N(C)C35OCC4(C(=O)OC)C1CC25 (centres undefined)	76.2 µM (inactive)	59.8 µM (inactive)	41.6 µM (inactive)	24.7 µM (inactive)	26.2 µM (inactive)	23.1	46.5 µM (inactive)	61 µM (inactive)	34.4 µM (inactive)	41.6 µM (inactive)	99.3 µM (inactive)	38.7 µM (inactive)	75.7 µM (inactive)	74.6 µM (inactive)	28.6 µM (inactive)	90.4 µM (inactive)	27.9 µM (inactive)	> 100 µM (inactive)	47.8 µM (inactive)	99.5 µM (inactive)
Cc1ncc([N+](=O)[O-])n1CCN=[N+]=[N-]	> 100 µM (inactive)	> 100 µM (inactive)	> 100 µM (inactive)	> 100 µM (inactive)	> 100 µM (inactive)	> 100	> 100 µM (inactive)	> 100 µM (inactive)	> 100 µM (inactive)	> 100 µM (inactive)	> 100 µM (inactive)	> 100 µM (inactive)	> 100 µM (inactive)	> 100 µM (inactive)	> 100 µM (inactive)	> 100 µM (inactive)	> 100 µM (inactive)	> 100 µM (inactive)	> 100 µM (inactive)	> 100 µM (inactive)
COc1cc(OC)c2nc3occc3c(OC)c2c1	> 100 µM (inactive)	66.4 µM (inactive)	> 100 µM (inactive)	27.7 µM (inactive)	55.7 µM (inactive)	30.4	> 100 µM (inactive)	> 100 µM (inactive)	62.8 µM (inactive)	> 100 µM (inactive)	77.4 µM (inactive)	> 100 µM (inactive)	71.1 µM (inactive)	> 100 µM (inactive)	> 100 µM (inactive)	41.7 µM (inactive)	> 100 µM (inactive)	> 100 µM (inactive)	> 100 µM (inactive)	67.8 µM (inactive)
O=c1[nH]nc(-c2ccccc2)n1/N=C\CC/C=N\n1c(-c2ccccc2)n[nH]c1=O	20.7 µM (inactive)	45.1 µM (inactive)	> 49.9 µM (inactive)	25.3 µM (inactive)	34 µM (inactive)	21.4	20 µM (inactive)	17.6 µM (inactive)	47.3 µM (inactive)	32.2 µM (inactive)	49 µM (inactive)	22.7 µM (inactive)	20.3 µM (inactive)	> 59.2 µM (inactive)	25.5 µM (inactive)	36.6 µM (inactive)	28.1 µM (inactive)	> 100 µM (inactive)	> 94.2 µM (inactive)	> 69.3 µM (inactive)
O=C(O)CN1C(=O)CN=C(c2ccccn2)c2cc(Cl)ccc21	> 100 µM (inactive)	> 100 µM (inactive)	> 100 µM (inactive)	> 100 µM (inactive)	0.547 µM (active)	> 100	> 100 µM (inactive)	> 100 µM (inactive)	> 100 µM (inactive)	> 100 µM (inactive)	> 100 µM (inactive)	> 100 µM (inactive)	> 100 µM (inactive)	> 100 µM (inactive)	> 100 µM (inactive)	> 100 µM (inactive)	> 100 µM (inactive)	> 100 µM (inactive)	> 100 µM (inactive)	> 100 µM (inactive)
O=c1[nH]/c(=C/c2ccc(OCc3ccccc3)cn2)c(=O)[nH]/c1=C/c1ccc(O)cc1	1.27 µM (inactive)	2.15 µM (inactive)	0.764 µM (active)	0.766 µM (active)	1.4 µM (inactive)	0.501	0.129 µM (active)	1.58 µM (inactive)	8.85 µM (inactive)	0.537 µM (active)	0.834 µM (active)	0.109 µM (active)	1.04 µM (active)	0.984 µM (active)	11.6 µM (inactive)	1.67 µM (inactive)	1.13 µM (inactive)	0.931 µM (active)	0.276 µM (active)	0.762 µM (active)
Clc1ccc(-c2nc3cc(Cl)ccc3[nH]2)cc1	28.9 µM (inactive)	41.4 µM (inactive)	43.4 µM (inactive)	26.8 µM (inactive)	32.7 µM (inactive)	30.3	29.1 µM (inactive)	32.7 µM (inactive)	28.2 µM (inactive)	42.6 µM (inactive)	> 100 µM (inactive)	27.6 µM (inactive)	26.2 µM (inactive)	31.8 µM (inactive)	27.7 µM (inactive)	39.8 µM (inactive)	27.2 µM (inactive)	30.8 µM (inactive)	19.6 µM (inactive)	40.1 µM (inactive)
CCOC(=O)c1nc2ccccc2nc1NCc1ccc(OC)c(OC)c1	> 100 µM (inactive)		> 100 µM (inactive)	> 100 µM (inactive)	> 100 µM (inactive)	> 100	> 100 µM (inactive)	> 100 µM (inactive)	> 100 µM (inactive)	> 100 µM (inactive)	> 100 µM (inactive)	> 100 µM (inactive)	> 100 µM (inactive)	> 100 µM (inactive)	> 100 µM (inactive)	> 100 µM (inactive)	> 100 µM (inactive)	82.4 µM (inactive)	> 100 µM (inactive)	> 100 µM (inactive)
